According to US10844038B2, “1,2-dithiolane compounds useful in neuroprotection, autoimmune and cancer diseases and conditions” (SABILA BIOSCIENCES LLC, priority 2016, dated 2020):
pIC50, pKd: −log10 of the molar value. Where two headings read alike, the source gives them in different places.

Tests used:
[1] = biological target: c-KIT (Homo sapiens (Human), UniProt P10721); test: Radioisotope filter binding assay; type: biochemical; settings: read-out: IC50 Activity Levels Against RTKs (c-Kit, RET, HER4) and AurA, CHK2 Kinases: c-KIT
Method: (§1) 3. Radioisotope Filter Binding Assay:
(§2) In this assay format, it directly detects the true product without the use of modified substrates or coupling enzymes (Uitdehaag, J. C., et al. Br. J. Pharmacol. 2012, 166, 858-876; Hastie, C. J., et al. Nat. Protoc. 2006, 1, 968-971) according to equation 1. Substrate+[γ−^33P]−ATP→^33P-Substrate+ADP eq 1
(§3) The protocol calls for test compound of the invention to be incubated with kinase, substrate, cofactors, and radio-isotope-labeled ATP (^33P-gamma-ATP). The reaction mixtures are then spotted onto filter papers which bind the radioisotope labeled catalytic product. Unreacted phosphate is removed via washing. The reagents used include base reaction buffer; 20 mM Hepes (pH 7.5), 10 mM MgCl2, 1 mM EGTA, 0.02% Brij35, 0.02 mg/ml BSA, 0.1 mM Na3VO4, 2 mM DTT, 1% DMSO. The reaction procedure include the following steps: (1) prepare indicated substrate in freshly prepared base reaction buffer, (2) deliver any required cofactors to the substrate solution above, (3) deliver indicated kinase into the substrate solution and gently mix, (4) deliver compounds in DMSO into the kinase reaction mixture by Acoustic technology (Echo550; nanoliter range), incubate for 20 minutes at room temperature, (5) deliver ^33P-ATP (specific activity 10 μCi/μL) into the reaction mixture to initiate the reaction, (6) incubate kinase reaction for 2 hours at room temperature, (7) reactions are spotted onto P81 ion exchange paper, (8) detect kinase activity by filter-binding method.

[2] = biological target: KDR/VEGFR2 (Homo sapiens (Human), UniProt P35968); test: Radioisotope filter binding assay; type: biochemical; settings: read-out: IC50 Activity Levels Against MAPK Pathway Kinases: KDR/VEGFR2
Method: as §1, §2, §3

[3] = biological target: RET (Homo sapiens (Human), UniProt P07949); test: Radioisotope filter binding assay; type: biochemical; settings: read-out: IC50 Activity Levels Against RTKs (c-Kit, RET, HER4) and AurA, CHK2 Kinases: RET
Method: as §1, §2, §3

[4] = biological target: HER4 (Homo sapiens (Human), UniProt Q15303); test: Radioisotope filter binding assay; type: biochemical; settings: read-out: IC50 Activity Levels Against RTKs (c-Kit, RET, HER4) and AurA, CHK2 Kinases: HER4
Method: as §1, §2, §3

[5] = biological target: mTOR (Homo sapiens (Human), UniProt P42345); test: KINOMEscan competition binding assay (Kd); settings: read-out: Kd Values Against mTOR Kinase: mTOR
Method: (§4) KINOMEscan™ is based on a competition binding assay that quantitatively measures the ability of a test compound of the invention to compete with an immobilized, active-site directed ligand. The Kinase assay is performed by combining three components: DNA-tagged kinase; immobilized ligand; and a test compound. The ability of the test compound to compete with the immobilized ligand is measured via quantitative PCR of the DNA tag.
(§5) For most assays, kinase-tagged T7 phage strains were prepared in an E. coli host derived from the BL21 strain. E. coli were grown to log-phase and infected with T7 phage and incubated with shaking at 32° C. until lysis. The lysates were centrifuged and filtered to remove cell debris. The remaining kinases were produced in HEK-293 cells and subsequently tagged with DNA for qPCR detection. Streptavidin-coated magnetic beads were treated with biotinylated small molecule ligands for 30 minutes at room temperature to generate affinity resins for kinase assays. The liganded beads were blocked with excess biotin and washed with blocking buffer (SeaBlock (Pierce), 1% BSA, 0.05% Tween 20, 1 mM DTT) to remove unbound ligand and to reduce nonspecific binding. […] All reactions were performed in polystyrene 96-well plates in a final volume of 0.135 ml. […] The kinase concentration in the eluates was measured by qPCR.

[6] = biological target: MEK1 (Homo sapiens (Human), UniProt Q02750); test: KINOMEscan competition binding assay (Kd); settings: read-out: Kd Values Against MEK Kinases Isoforms: MEK1
Method: as §4, §5

[7] = biological target: MEK5 (Homo sapiens (Human), UniProt Q13163); test: KINOMEscan competition binding assay (Kd)
Method: as §4, §5

[8] = biological target: T1, YES1 (Homo sapiens (Human), UniProt P07947); test: Kinase binding assay CaPBA; settings: read-out: IC50 Activity Levels Against FYN isoforms, YES1 and MEK5: YES1
From the text: 4. Kinase Binding Assay CaPBA:

[9] = biological target: FYN (Homo sapiens (Human), UniProt P06241); test: Radiometric 33PanQinase assay (FlashPlate-based Protein Kinase Assay); type: biochemical; settings: at app. ATP Km, read-out: IC50 Activity Levels Against FYN Kinase: FYN
From the text: 5. Radiometric ^33PanQinase^R Assay:
This assay referred to as FlashPlate-based Protein Kinase Assay uses recombinant protein kinase and ATP concentration corresponding to the apparent ATP-Km of the respective kinase. Testing of inhibitors is done at app. ATP Km.

[10] = biological target: T1, YES1; test: Rabbit reticulocyte lysate assay (KinaseSeeker competition binding); settings: read-out: IC50 Activity Levels Against SRC Family Kinases: YES1
Method: (§6) 1. Rabbit Reticulocyte Lysate Assay Design:
(§7) KinaseSeeker is a homogeneous competition binding assay where the displacement of an active site dependent probe by an inhibitor is measured by a change in luminescence signal. Luminescence readout translates into a highly sensitive and robust assay with low background and minimal interference from test compounds.
(§8) 10 mM stock solutions of test compounds were serially diluted in DMSO to make assay stocks. Prior to initiating IC50 determinations, the test compounds were evaluated for false positive against split-luciferase.
(§9) Each test compound was screened in duplicate against target kinase at 7 different concentrations. For kinase assays, Cfluc-kinase was translated along with Fos-Nfluc using a cell-free system (rabbit reticulocyte lysate) at 30° C. for 90 min. 24 uL aliquot of this lysate containing either 1 uL of DMSO (for no-inhibitor control) or compound solution in DMSO was incubated for 30 minutes at room temperature followed by 1 hour in presence of a kinase specific probe. 80 uL of luciferin assay reagent was added to each solution and luminescence was immediately measured on a luminometer.
(§10) The % Inhibition and % Activity Remaining was calculated using the following equation: % Inhibition=[(ALUControl−ALUSample)/ALUControl]×100 % Activity Remaining=100−% Inhibition
(§11) The % Activity was plotted against compound concentration and the IC50 was determined for each compound using a 7-point curve (Jester, B. W.; et. al. J. Am. Chem. Soc. 2010, 132, 11727-11735. Jester, B. W., et. al. J. Med. Chem. 2012, 55, 1526-1537). Biological activity of representative compounds of the disclosure are described in Table 5.

[11] = biological target: FGR (Homo sapiens (Human), UniProt P09769); test: as above; settings: read-out: IC50 Activity Levels Against SRC Family Kinases: FGR
Method: as §6, §7, §8, §9, §10, §11

[12] = Table 12, read-out: Kd Values Against MEK Kinases Isoforms: MEK5

Chain of MEK5 (Q13163 whole entry): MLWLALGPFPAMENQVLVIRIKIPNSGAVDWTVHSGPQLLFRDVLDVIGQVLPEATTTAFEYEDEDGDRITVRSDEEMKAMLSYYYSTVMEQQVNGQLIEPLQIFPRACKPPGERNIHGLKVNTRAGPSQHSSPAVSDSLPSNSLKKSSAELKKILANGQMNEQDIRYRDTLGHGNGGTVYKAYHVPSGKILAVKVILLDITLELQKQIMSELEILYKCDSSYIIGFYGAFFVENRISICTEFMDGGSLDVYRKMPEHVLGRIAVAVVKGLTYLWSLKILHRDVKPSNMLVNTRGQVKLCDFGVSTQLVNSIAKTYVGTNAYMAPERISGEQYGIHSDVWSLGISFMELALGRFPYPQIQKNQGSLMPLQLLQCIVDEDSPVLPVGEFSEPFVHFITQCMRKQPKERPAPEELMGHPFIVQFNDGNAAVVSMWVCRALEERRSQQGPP
T1 sequence (P07947 whole entry, canonical isoform): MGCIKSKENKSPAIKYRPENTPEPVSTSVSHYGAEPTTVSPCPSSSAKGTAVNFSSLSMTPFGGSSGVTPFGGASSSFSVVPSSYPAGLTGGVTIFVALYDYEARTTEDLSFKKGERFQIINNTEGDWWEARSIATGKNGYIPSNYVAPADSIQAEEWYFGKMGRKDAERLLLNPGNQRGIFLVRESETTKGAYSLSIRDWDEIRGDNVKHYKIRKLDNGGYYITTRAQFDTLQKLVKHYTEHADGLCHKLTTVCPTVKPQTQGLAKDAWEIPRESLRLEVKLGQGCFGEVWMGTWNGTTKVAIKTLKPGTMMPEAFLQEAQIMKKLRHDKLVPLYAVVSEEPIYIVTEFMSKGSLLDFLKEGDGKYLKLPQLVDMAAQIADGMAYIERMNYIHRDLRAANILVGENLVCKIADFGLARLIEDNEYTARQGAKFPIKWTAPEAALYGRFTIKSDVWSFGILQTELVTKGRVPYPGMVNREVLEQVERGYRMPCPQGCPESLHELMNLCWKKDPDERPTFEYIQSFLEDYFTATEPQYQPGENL
Chain of MEK1 (Q02750 whole entry, canonical isoform): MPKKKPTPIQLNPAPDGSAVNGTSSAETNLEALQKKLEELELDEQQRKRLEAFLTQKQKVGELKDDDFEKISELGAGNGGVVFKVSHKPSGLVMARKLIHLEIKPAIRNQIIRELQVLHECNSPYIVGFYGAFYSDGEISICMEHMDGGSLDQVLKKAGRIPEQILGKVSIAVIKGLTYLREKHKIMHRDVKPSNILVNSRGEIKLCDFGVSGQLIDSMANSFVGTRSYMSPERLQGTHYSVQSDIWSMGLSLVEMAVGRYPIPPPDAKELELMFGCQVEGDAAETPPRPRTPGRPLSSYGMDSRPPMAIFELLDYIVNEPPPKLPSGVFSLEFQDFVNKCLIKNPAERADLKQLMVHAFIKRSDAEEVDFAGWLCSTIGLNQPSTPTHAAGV
Chain of KDR/VEGFR2 (P35968 20-1356): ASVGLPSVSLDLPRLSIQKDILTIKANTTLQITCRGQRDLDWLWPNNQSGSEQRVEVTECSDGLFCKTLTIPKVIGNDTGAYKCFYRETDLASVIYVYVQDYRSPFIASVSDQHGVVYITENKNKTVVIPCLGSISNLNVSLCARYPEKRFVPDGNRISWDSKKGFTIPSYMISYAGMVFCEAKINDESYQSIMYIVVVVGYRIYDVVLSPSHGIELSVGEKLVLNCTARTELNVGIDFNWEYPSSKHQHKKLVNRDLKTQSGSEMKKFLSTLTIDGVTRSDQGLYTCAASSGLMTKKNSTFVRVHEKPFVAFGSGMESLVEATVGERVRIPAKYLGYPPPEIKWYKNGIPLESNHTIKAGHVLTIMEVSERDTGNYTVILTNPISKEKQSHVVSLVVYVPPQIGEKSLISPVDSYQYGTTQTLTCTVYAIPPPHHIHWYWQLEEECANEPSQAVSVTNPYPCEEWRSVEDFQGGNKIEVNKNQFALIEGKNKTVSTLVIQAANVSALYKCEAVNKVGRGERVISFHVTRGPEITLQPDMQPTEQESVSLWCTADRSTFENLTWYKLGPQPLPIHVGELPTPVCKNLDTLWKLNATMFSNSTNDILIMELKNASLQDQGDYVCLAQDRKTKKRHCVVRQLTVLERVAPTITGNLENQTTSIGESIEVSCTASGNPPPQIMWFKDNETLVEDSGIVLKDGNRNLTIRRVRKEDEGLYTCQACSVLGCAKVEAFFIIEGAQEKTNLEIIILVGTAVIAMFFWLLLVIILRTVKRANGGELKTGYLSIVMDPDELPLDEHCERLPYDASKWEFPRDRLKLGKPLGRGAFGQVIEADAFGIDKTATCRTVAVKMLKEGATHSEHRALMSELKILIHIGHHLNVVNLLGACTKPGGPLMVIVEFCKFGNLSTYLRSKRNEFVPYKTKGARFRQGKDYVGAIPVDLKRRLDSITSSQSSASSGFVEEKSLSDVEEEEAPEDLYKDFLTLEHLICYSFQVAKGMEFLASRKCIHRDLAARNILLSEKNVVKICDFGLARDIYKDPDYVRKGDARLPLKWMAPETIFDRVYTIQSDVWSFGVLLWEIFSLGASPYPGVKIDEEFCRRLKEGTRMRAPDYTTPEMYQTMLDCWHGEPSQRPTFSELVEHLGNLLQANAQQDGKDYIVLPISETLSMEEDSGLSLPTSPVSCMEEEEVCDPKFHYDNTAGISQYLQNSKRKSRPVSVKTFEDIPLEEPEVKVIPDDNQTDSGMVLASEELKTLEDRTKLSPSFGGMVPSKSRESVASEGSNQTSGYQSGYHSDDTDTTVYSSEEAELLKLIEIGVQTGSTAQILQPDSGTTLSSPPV
Chain of FGR (P09769 whole entry): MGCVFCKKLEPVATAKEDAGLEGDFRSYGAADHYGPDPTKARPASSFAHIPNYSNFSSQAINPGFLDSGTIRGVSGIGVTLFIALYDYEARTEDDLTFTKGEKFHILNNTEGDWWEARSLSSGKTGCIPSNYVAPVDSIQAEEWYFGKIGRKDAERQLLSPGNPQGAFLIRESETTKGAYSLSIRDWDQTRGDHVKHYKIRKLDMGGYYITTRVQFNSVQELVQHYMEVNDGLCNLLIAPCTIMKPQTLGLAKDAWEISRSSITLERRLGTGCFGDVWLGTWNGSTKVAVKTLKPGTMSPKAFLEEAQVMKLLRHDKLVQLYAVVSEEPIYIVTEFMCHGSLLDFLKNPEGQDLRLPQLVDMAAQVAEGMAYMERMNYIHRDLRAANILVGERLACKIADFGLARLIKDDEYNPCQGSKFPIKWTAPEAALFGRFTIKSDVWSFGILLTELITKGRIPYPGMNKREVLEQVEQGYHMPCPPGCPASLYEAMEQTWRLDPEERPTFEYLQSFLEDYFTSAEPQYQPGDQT
Chain of HER4 (Q15303 26-1308): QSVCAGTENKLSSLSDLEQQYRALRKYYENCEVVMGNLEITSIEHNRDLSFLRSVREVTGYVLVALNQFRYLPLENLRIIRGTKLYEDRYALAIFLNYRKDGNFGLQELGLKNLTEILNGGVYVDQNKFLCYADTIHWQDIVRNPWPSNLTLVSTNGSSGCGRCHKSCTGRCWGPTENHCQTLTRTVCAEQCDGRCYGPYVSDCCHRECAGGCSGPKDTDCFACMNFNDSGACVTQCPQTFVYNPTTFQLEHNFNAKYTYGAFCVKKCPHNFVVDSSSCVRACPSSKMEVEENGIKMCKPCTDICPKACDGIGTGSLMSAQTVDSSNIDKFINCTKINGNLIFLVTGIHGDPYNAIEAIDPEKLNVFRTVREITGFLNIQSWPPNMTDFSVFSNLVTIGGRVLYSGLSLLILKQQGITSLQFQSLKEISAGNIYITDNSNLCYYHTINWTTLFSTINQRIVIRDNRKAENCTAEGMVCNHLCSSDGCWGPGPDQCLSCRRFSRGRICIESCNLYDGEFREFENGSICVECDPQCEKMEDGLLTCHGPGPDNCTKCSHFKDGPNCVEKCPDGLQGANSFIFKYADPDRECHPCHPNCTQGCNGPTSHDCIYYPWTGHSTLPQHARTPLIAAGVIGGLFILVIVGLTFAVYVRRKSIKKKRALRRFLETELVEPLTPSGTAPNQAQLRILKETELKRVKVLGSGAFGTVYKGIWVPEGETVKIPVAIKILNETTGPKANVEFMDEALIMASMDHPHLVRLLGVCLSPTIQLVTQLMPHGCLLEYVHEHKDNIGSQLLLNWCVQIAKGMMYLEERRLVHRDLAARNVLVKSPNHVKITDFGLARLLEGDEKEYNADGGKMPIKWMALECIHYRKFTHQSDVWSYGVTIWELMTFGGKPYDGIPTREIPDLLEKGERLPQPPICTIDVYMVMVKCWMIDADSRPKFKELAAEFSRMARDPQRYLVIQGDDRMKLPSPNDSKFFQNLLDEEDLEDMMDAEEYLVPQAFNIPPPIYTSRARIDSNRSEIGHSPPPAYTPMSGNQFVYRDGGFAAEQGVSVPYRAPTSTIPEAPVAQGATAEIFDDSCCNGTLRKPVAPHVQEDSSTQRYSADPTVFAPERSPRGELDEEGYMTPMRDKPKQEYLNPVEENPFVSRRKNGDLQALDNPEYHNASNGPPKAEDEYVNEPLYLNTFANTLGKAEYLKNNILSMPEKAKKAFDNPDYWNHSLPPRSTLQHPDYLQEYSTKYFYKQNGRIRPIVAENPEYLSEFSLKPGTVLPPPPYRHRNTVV
Chain of FYN (P06241 whole entry): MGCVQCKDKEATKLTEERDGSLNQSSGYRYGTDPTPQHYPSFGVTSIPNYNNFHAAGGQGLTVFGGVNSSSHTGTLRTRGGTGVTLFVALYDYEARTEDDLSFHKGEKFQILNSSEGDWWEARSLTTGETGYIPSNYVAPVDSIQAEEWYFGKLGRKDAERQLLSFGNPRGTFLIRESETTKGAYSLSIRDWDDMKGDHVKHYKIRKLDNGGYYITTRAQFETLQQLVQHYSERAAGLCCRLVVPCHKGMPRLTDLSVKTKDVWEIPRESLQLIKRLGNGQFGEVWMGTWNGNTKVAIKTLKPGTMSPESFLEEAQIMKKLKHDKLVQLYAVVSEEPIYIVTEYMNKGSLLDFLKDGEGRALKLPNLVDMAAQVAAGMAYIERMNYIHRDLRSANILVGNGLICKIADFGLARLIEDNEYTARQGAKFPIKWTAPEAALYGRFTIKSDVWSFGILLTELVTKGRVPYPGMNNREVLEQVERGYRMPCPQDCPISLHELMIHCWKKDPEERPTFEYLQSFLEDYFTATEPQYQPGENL

| Structure (SMILES) | pIC50 [1] | pIC50 [2] | pIC50 [3] | pIC50 [4] | pKd [5] | pKd [6] | pKd [7, 12] | pIC50 [8] | pKd ([7]; Table 9, read-out: Kd Values Against Representative MEK5 Kinase: MEK5) | pIC50 [9] | pIC50 [10] | pIC50 [11] |
| --- | --- | --- | --- | --- | --- | --- | --- | --- | --- | --- | --- | --- |
| Nc1ncnc2c1c(-c1ccc(Oc3ccccc3)cc1)nn2C[C@@H]1SSC[C@@H]1O [46 A.] | 5.00 to 6.00 | 5.00 to 6.00 | 6.00 to 7.00 | 5.00 to 6.00 | 6.00 to 7.00 | 6.00 to 7.00 | > 8.30 |  |  |  |  |  |
| Nc1ncnc2c1c(-c1ccc(Oc3ccccc3)cc1)nn2C[C@@H]1SSC[C@H]1O [43 A.] |  |  |  |  | 5.00 to 6.00 |  |  | > 8.30 | > 8.30 |  |  |  |
| Nc1ncnc2c1c(-c1ccc(Oc3ccccc3)cc1)nn2C[C@H]1SSC[C@@H]1O [43 B.] |  |  |  |  | 6.00 to 7.00 | 7.00 to 8.30 | > 8.30 | > 8.30 |  | 7.00 to 8.30 | 6.00 to 7.00 | 6.00 to 7.00 |
| Nc1ncnc2c1c(-c1ccc(Oc3ccccc3)cc1)nn2C[C@H]1SSC[C@H]1O [46 B.] | 5.00 to 6.00 | 5.00 to 6.00 | 5.00 to 6.00 | 7.00 to 8.30 | 6.00 to 7.00 | 7.00 to 8.30 | > 8.30 | > 8.30 |  | 7.00 to 8.30 | 7.00 to 8.30 | 6.00 to 7.00 |
